From PubChem BioAssay (NCI)
“And” between values parts separate entries of the source, which are not always exact repeats. Equal values may be shown once.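 All cell lines were grown in 96-well plates and treated with compound for 48 hours. GI50 = concentration required for 50% inhibition of growth. TGI: concentration producing complete growth inhibition.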

Columns and labels:
Test in all cases: NCI anticancer screen, dose series, 48 h
DMS 114 small cell lung = tested on: DMS 114 small cell lung
DMS 273 small cell lung = tested on: DMS 273 small cell lung
IGROV1 ovarian = tested on: IGROV1 ovarian
M14 melanoma = tested on: M14 melanoma
MOLT-4 leukemia = tested on: MOLT-4 leukemia
NCI-H226 lung = tested on: NCI-H226 lung
OVCAR-4 ovarian = tested on: OVCAR-4 ovarian
OVCAR-5 ovarian = tested on: OVCAR-5 ovarian
TK-10 renal = tested on: TK-10 renal
HS 578T breast = tested on: HS 578T breast
T-47D breast = tested on: T-47D breast

SMILES	TGI (DMS 114 small cell lung)	TGI (DMS 273 small cell lung)	TGI (IGROV1 ovarian)	TGI (M14 melanoma)	TGI (MOLT-4 leukemia)	TGI (NCI-H226 lung)	TGI (OVCAR-4 ovarian)	TGI (OVCAR-5 ovarian)	TGI (TK-10 renal)	GI50 (HS 578T breast)	TGI (HS 578T breast)	GI50 (IGROV1 ovarian)	GI50 (M14 melanoma)	GI50 (MOLT-4 leukemia)	GI50 (OVCAR-4 ovarian)	GI50 (OVCAR-5 ovarian)	GI50 (T-47D breast)	TGI (T-47D breast)	GI50 (TK-10 renal)
Brc1ccc(N2C[N+](c3ccc(Br)cc3)=NC(c3ccccc3)=N2)cc1	34.7 µM and 97.8 µM	21.1 µM and > 100 µM	29.1 µM and > 100 µM	26.2 µM and > 100 µM	32.5 µM and > 100 µM	44.4 µM and > 100 µM	35.3 µM and > 100 µM	30.2 µM and > 100 µM	38 µM and > 100 µM										
O=C(c1cccs1)N(C(=S)N1CCN(c2ccccc2)CC1)c1ccccc1	> 100 µM	> 100 µM	> 100 µM	> 100 µM	> 100 µM	> 100 µM	> 100 µM	> 100 µM	> 100 µM										
Oc1ccc2ccccc2c1-c1nnc(CCCCCCCCc2nnc(-c3c(O)ccc4ccccc34)o2)o1			25 µM and 98.6 µM	25 µM and 55.1 µM		29.6 µM	25 µM	25 µM and > 100 µM	> 100 µM	19.6 µM	25 µM and > 100 µM	11.6 µM	4.77 µM	0.0812 µM	2.35 µM	19.9 µM	1.67 µM	25 µM and > 100 µM	> 25 µM
COc1cc(C2SCC(=O)N2NC(=O)c2ccc(NC(C)=O)cc2)cc(OC)c1OC (centres undefined)			> 100 µM	> 100 µM	> 100 µM	> 100 µM	> 100 µM	> 100 µM	> 100 µM		> 100 µM							> 100 µM	
O=[N+]([O-])c1ccc2nc3ccc([N+](=O)[O-])cn3c2c1			> 100 µM	> 100 µM	> 100 µM	> 100 µM	> 100 µM	> 100 µM	> 100 µM		> 100 µM							> 100 µM	
Cc1[nH]c(=O)nc(N/N=C/c2ccc(Cl)c(Cl)c2)c1C(=O)Nc1ccc(Cl)c(Cl)c1			> 39.2 µM	15.7 µM	> 100 µM	> 52.2 µM	11 µM	> 46.3 µM	28 µM		27.2 µM							72 µM	
COc1ccc(C(=O)Cc2cc(OC)ccc2OC)cc1	> 100 µM	> 100 µM	> 100 µM	> 100 µM	> 100 µM	> 100 µM	> 100 µM	> 100 µM	> 100 µM										
O=C(Cn1c2ccc(Br)cc2c2nc3ccccc3nc21)NC1CCCCC1			> 100 µM	> 100 µM	> 100 µM	> 100 µM	> 100 µM	> 100 µM	> 100 µM		> 100 µM							> 100 µM	
O=S1(=O)NNC(=NCc2ccc(F)cc2)c2ccccc21		> 100 µM	> 100 µM	> 100 µM	> 70.8 µM	> 100 µM	> 100 µM	> 100 µM			49.2 µM							> 100 µM	
O=CNc1cccc2c3c([nH]c12)CCCCCC3	> 100 µM	> 100 µM	> 100 µM		> 100 µM	> 100 µM	> 100 µM	> 100 µM											
Cc1cc(S(=O)(=O)Nc2n[nH]c(Nc3ccccc3)n2)c(S)cc1Cl			> 10 µM	> 10 µM	> 10 µM	> 10 µM	> 10 µM	> 10 µM	> 10 µM		> 10 µM							> 10 µM	
COc1ccc(/C=N/Nc2[nH]c(=S)nc3[nH]ncc23)cc1			68.2 µM	> 100 µM	> 100 µM	> 100 µM	> 100 µM	> 100 µM	65.9 µM		> 100 µM							44.2 µM	
CC1=NN(c2ccc(C)cc2)C2(C1)SCC(=O)N2c1nc2ccccc2s1 (centres undefined)			> 100 µM	> 100 µM	46.1 µM	47 µM	> 100 µM	> 100 µM	74.4 µM		> 100 µM							67.1 µM	
Cc1ccc(S(=O)(=O)C(C#N)c2nc3ccccc3nc2-n2cccn2)cc1 (centres undefined)	> 100 µM	> 100 µM	> 100 µM	> 100 µM	> 100 µM	> 100 µM	> 100 µM	> 100 µM	> 100 µM										
O=C1C/C(=C\O)C(=O)c2ccccc2N1			> 100 µM	> 100 µM	> 100 µM	> 100 µM	> 100 µM	> 100 µM	> 100 µM		> 100 µM							> 100 µM	
CC(=O)O[C@]12CCCCCCC1C1(O)C(O)CCC[C@H]12 (some centres undefined)	> 100 µM	> 100 µM		> 100 µM	> 100 µM	> 100 µM	> 100 µM		> 100 µM										
CNc1ccc2nc(-c3ccc(OC(=O)N(C)C)cc3)cn2c1			31.8 µM	36.9 µM	43 µM	37.4 µM	31.6 µM	46 µM	34.3 µM		> 100 µM							47.2 µM	
N#Cc1c(=O)c2cccnc2n2c1[nH]c1ccccc12			> 100 µM	> 100 µM	> 100 µM	> 100 µM	> 100 µM	> 100 µM	> 100 µM		69.9 µM							> 100 µM	
C=C1C(=O)O[C@H]2C1[C@H](OC(=O)/C(C)=C\COC(C)=O)C[C@]1(CO1)[C@@H]1[C@H](O)[C@H]3O[C@@]3(C)[C@@H]12 (some centres undefined)	42.6 µM	> 63.2 µM	59.8 µM		> 73.3 µM	78.1 µM	> 77.3 µM	> 100 µM											
O=C1c2cc([N+](=O)[O-])ccc2NC2C(O)c3ccccc3N12 (centres undefined)			75.3 µM	> 100 µM	49.1 µM	82.9 µM	55.8 µM	> 100 µM	58.1 µM		74.3 µM							49.6 µM	
CN(C)c1ccc(-c2nc(-c3cc4c(ccc5ccccc54)oc3=O)cs2)cc1			> 100 µM	> 100 µM	> 100 µM	> 100 µM	> 100 µM	> 100 µM	> 100 µM		> 100 µM							> 100 µM	
CCCCCCCCCCCCOC1C(COCCN2CCCC2)OC2OC(C)(C)OC21 (centres undefined)			3.1 µM	3.25 µM	10.4 µM	7.62 µM	7.6 µM	2.88 µM	3.03 µM		3.51 µM							4.11 µM	
